# Measurements published in ChEMBL document CHEMBL4261618, “Monodisperse oligoethylene glycols modified Propofol prodrugs” (Bioorg Med Chem Lett, 2018).
# Test system: not listed separately
# Assay: Prodrug activation in Sprague-Dawley rat plasma assessed as propofol release at 4 mg after 20 mins by HPLC analysis
# Format: cell-free
# Conditions: not given
row,Compound,Drug metabolism
1,COCCOCCOCCOCCOCCOCCOCCOCCOCCOCCOC(=O)Oc1c(C(C)C)cccc1C(C)C,Metabolite_Detected

# Test system: not listed separately
# Assay: Prodrug activation in Sprague-Dawley rat plasma assessed as propofol release at 4 mg after 5 mins by HPLC analysis
# Format: cell-free
# Conditions: not given
row,Compound,Drug metabolism
1,COCCOCCOCCOCCOCCOCCOCCOCCOCCOCCOCC(=O)Oc1c(C(C)C)cccc1C(C)C,Metabolite_Detected

# Test system: L929
# Assay: Cytotoxicity against mouse L929 cells assessed as reduction in cell viability up to 4 mM after 24 hrs by MTT assay
# Format: cell-based
# Conditions: l929, 24 h
row,Compound,Activity
1,COCCOCCOCCOCCOCCOCCOCCOCCOCCOCCO,Non-Toxic
2,COCCOCCOCCO,Non-Toxic

# Test system: not listed separately
# Assay: Cytotoxicity against human A549 cells assessed as cell viability at 0.05 mM after 24 hrs by MTT assay relative to control
# Format: cell-based
# Conditions: read-out: Activity
row,Compound,"viability at 24 h, 50 µM [%]"
1,COCCOCCOCCOCCOCCOCCOCCOCC(=O)Oc1c(C(C)C)cccc1C(C)C,> 90
2,COCCOCCOCCOCCOC(=O)Oc1c(C(C)C)cccc1C(C)C,> 90
3,COCCOCCOCCOCCOCCOCCOC(=O)Oc1c(C(C)C)cccc1C(C)C,> 90
4,COCCOCCOCCOCCOCCOCCOCCOCCOCCOCCOCOc1c(C(C)C)cccc1C(C)C,> 90
5,COCCOCCOCC(=O)Oc1c(C(C)C)cccc1C(C)C,> 90
6,COCCOCCOCCOCCOCCOCCOCCOC(=O)Oc1c(C(C)C)cccc1C(C)C,> 90
7,COCCOCCOCCOCCOCCOCCOCCOCCOCCOCCOC(=O)Oc1c(C(C)C)cccc1C(C)C,> 90
8,COCCOCCOCCOCCOCCOCCOCCOCCOCCOCCOCC(=O)Oc1c(C(C)C)cccc1C(C)C,> 90

# Test system: not listed separately
# Assay: Solubility of the compound in pH 7.4 PBS buffer containing 60% methanol by ultraviolet spectroscopic method
# Format: physicochemical
# Conditions: not given
row,Compound,solubility [µg/mL]
1,COCCOCCOCC(=O)Oc1c(C(C)C)cccc1C(C)C,420

# Test system: A549
# Assay: Cytotoxicity against human A549 cells after 24 hrs by MTT assay
# Format: cell-based
# Conditions: A549, 24 h
row,Compound,EC50 [µM]
1,COCCOCCOCCOCCOCCOCCOCCOCC(=O)Oc1c(C(C)C)cccc1C(C)C,520
2,COCCOCCOCCOCCOC(=O)Oc1c(C(C)C)cccc1C(C)C,1360
3,COCCOCCOCCOCCOCCOCCOC(=O)Oc1c(C(C)C)cccc1C(C)C,730
4,COCCOCCOCCOCCOCCOCCOCCOCCOCCOCCOCOc1c(C(C)C)cccc1C(C)C,610
5,COCCOCCOCC(=O)Oc1c(C(C)C)cccc1C(C)C,4150
6,COCCOCCOCCOCCOCCOCCOCCOC(=O)Oc1c(C(C)C)cccc1C(C)C,500
7,COCCOCCOCCOCCOCCOCCOCCOCCOCCOCCOC(=O)Oc1c(C(C)C)cccc1C(C)C,400
8,COCCOCCOCCOCCOCCOCCOCCOCCOCCOCCOCC(=O)Oc1c(C(C)C)cccc1C(C)C,600

# Test system: Rattus norvegicus
# Assay: Anesthetic activity in Sprague-Dawley rat assessed as anesthetic duration time at 0.073 mmol/kg, iv for 10 secs
# Format: functional
# Conditions: not given
row,Compound,Time [min]
1,COCCOCCOCCOCCOCCOCCOCCOCC(=O)Oc1c(C(C)C)cccc1C(C)C,10.5
2,COCCOCCOCCOCCOCCOCCOCCOCCOCCOCCOC(=O)Oc1c(C(C)C)cccc1C(C)C,5.6
3,COCCOCCOCCOCCOCCOCCOCCOCCOCCOCCOCC(=O)Oc1c(C(C)C)cccc1C(C)C,8.5

# Test system: not listed separately
# Assay: Prodrug activation in Sprague-Dawley rat plasma assessed as propofol release at 4 mg after 24 hrs by HPLC analysis
# Format: cell-free
# Conditions: not given
row,Compound,Drug metabolism
1,COCCOCCOCCOCCOCCOCCOCCOCCOCCOCCOCOc1c(C(C)C)cccc1C(C)C,Metabolite_Notdetected
2,COCCOCCOCCOCCOCCOCCOCCOCCOCCOCCOCC(=O)Oc1c(C(C)C)cccc1C(C)C,Metabolite_Detected

# Test system: not listed separately
# Assay: Cytotoxicity against mouse L929 cells assessed as cell viability at 0.05 mM after 24 hrs by MTT assay relative to control
# Format: cell-based
# Conditions: read-out: Activity
row,Compound,"viability at 24 h, 50 µM [%]"
1,COCCOCCOCCOCCOCCOCCOCCOCC(=O)Oc1c(C(C)C)cccc1C(C)C,> 90
2,COCCOCCOCCOCCOC(=O)Oc1c(C(C)C)cccc1C(C)C,> 90
3,COCCOCCOCCOCCOCCOCCOC(=O)Oc1c(C(C)C)cccc1C(C)C,> 90
4,COCCOCCOCCOCCOCCOCCOCCOCCOCCOCCOCOc1c(C(C)C)cccc1C(C)C,> 90
5,COCCOCCOCC(=O)Oc1c(C(C)C)cccc1C(C)C,> 90
6,COCCOCCOCCOCCOCCOCCOCCOC(=O)Oc1c(C(C)C)cccc1C(C)C,> 90
7,COCCOCCOCCOCCOCCOCCOCCOCCOCCOCCOC(=O)Oc1c(C(C)C)cccc1C(C)C,> 90
8,COCCOCCOCCOCCOCCOCCOCCOCCOCCOCCOCC(=O)Oc1c(C(C)C)cccc1C(C)C,> 90

# Test system: L929
# Assay: Cytotoxicity against mouse L929 cells after 24 hrs by MTT assay
# Format: cell-based
# Conditions: L929, 24 h
row,Compound,EC50 [µM]
1,COCCOCCOCCOCCOCCOCCOCCOCC(=O)Oc1c(C(C)C)cccc1C(C)C,120
2,COCCOCCOCCOCCOC(=O)Oc1c(C(C)C)cccc1C(C)C,1390
3,COCCOCCOCCOCCOCCOCCOC(=O)Oc1c(C(C)C)cccc1C(C)C,510
4,COCCOCCOCCOCCOCCOCCOCCOCCOCCOCCOCOc1c(C(C)C)cccc1C(C)C,210
5,COCCOCCOCC(=O)Oc1c(C(C)C)cccc1C(C)C,1410
6,COCCOCCOCCOCCOCCOCCOCCOC(=O)Oc1c(C(C)C)cccc1C(C)C,110
7,COCCOCCOCCOCCOCCOCCOCCOCCOCCOCCOC(=O)Oc1c(C(C)C)cccc1C(C)C,420
8,COCCOCCOCCOCCOCCOCCOCCOCCOCCOCCOCC(=O)Oc1c(C(C)C)cccc1C(C)C,490

# Test system: not listed separately
# Assay: Prodrug activation in Sprague-Dawley rat plasma assessed as propofol release at 4 mg after 1 mins by HPLC analysis
# Format: cell-free
# Conditions: not given
row,Compound,Drug metabolism
1,COCCOCCOCCOCCOCCOCCOCCOCC(=O)Oc1c(C(C)C)cccc1C(C)C,Metabolite_Detected

# Test system: A549
# Assay: Cytotoxicity against human A549 cells assessed as reduction in cell viability up to 4 mM after 24 hrs by MTT assay
# Format: cell-based
# Conditions: a549, 24 h
row,Compound,Activity
1,COCCOCCOCCOCCOCCOCCOCCOCCOCCOCCO,Non-Toxic
2,COCCOCCOCCO,Non-Toxic

# Test system: Rattus norvegicus
# Assay: Toxicity in Sprague-Dawley rat assessed as death at 0.073 mmol/kg, iv for 10 secs
# Format: organism-based
# Conditions: in vivo, 10 s
row,Compound,Activity
1,COCCOCCOCCOCCOCCOCCOCCOCCOCCOCCOCOc1c(C(C)C)cccc1C(C)C,Toxic

# Test system: not listed separately
# Assay: Critical micellar concentration of the compound in pyrene/acetone solution ultrasonicated for 30 mins followed by incubation in water bath at 60 degC for 40 mins and subsequent incubation at 40 degC for 12 hrs by fluorescence assay
# Format: physicochemical
# Conditions: buffer
row,Compound,CMC [mM]
1,COCCOCCOCCOCCOCCOCCOCCOCC(=O)Oc1c(C(C)C)cccc1C(C)C,1.3
2,COCCOCCOCCOCCOCCOCCOCCOC(=O)Oc1c(C(C)C)cccc1C(C)C,1.5

# Test system: Rattus norvegicus
# Assay: Anesthetic activity in Sprague-Dawley rat assessed as onset time for loss of righting reflex at 0.073 mmol/kg, iv for 10 secs
# Format: functional
# Conditions: not given
row,Compound,Time [s]
1,COCCOCCOCCOCCOCCOCCOCCOCC(=O)Oc1c(C(C)C)cccc1C(C)C,0
2,COCCOCCOCCOCCOCCOCCOCCOCCOCCOCCOC(=O)Oc1c(C(C)C)cccc1C(C)C,0
3,COCCOCCOCCOCCOCCOCCOCCOCCOCCOCCOCC(=O)Oc1c(C(C)C)cccc1C(C)C,0

# Test system: not listed separately
# Assay: Solubility of the compound in pH 7.4 PBS buffer by ultraviolet spectroscopic method
# Format: physicochemical
# Conditions: not given
row,Compound,solubility [µg/mL]
1,COCCOCCOCCOCCOCCOCCOCCOCC(=O)Oc1c(C(C)C)cccc1C(C)C,> 216000
2,COCCOCCOCCOCCOC(=O)Oc1c(C(C)C)cccc1C(C)C,380
3,COCCOCCOCCOCCOCCOCCOC(=O)Oc1c(C(C)C)cccc1C(C)C,830
4,COCCOCCOCCOCCOCCOCCOCCOCCOCCOCCOCOc1c(C(C)C)cccc1C(C)C,> 289000
5,COCCOCCOCCOCCOCCOCCOCCOC(=O)Oc1c(C(C)C)cccc1C(C)C,2730
6,COCCOCCOCCOCCOCCOCCOCCOCCOCCOCCOC(=O)Oc1c(C(C)C)cccc1C(C)C,> 315000
7,COCCOCCOCCOCCOCCOCCOCCOCCOCCOCCOCC(=O)Oc1c(C(C)C)cccc1C(C)C,> 371000
